Measurements from patent US10532040B2, “Methods of treating cancer with herbacetin” (REGENTS OF THE UNIVERSITY OF MINNESOTA, priority 2011, dated 2020).
“Also recorded” adds a separate entry of the source.

What was measured:
[1] = test system: activator protein-1 (AP-1); assay: TPA-induced AP-1 reporter activity in JB6 cells; format: cell-based, mouse; details: JB6 cells pre-treated 2 h, then TPA 48 h
Procedure: FIGS. 3A-3H. Anticancer effect of herbacetin. (a) The effect of herbacetin on ODC activity in colon cancer cell lines was measured as the release of CO2 from L-[1-C^14] ornithine. […] (b) The effect of herbacetin and DFMO on the growth of colon cancer cells and (c) TPA-induced JB6 cell growth was compared. Cells were incubated for 72 h and growth was estimated using the MTS assay. (d) The effect of herbacetin on anchorage independent HCT116 colon cancer cell growth and (e) TPA-induced JB6 cell transformation was assessed. Cells were incubated for 2 weeks and then colonies were counted using a microscope and the Image-Pro PLUS (v.6) computer software program. The effect of herbacetin on AP-1 reporter activity in (f) HCT116 colon cancer cells and (g) TPA-induced AP-1 reporter activity in JB6 mouse epidermal cells was analyzed using the substrates included in the reporter assay system. […] (h) The effect of herbacetin on the phosphorylation of ERK1 and ERK2 in HCT116 colon cancer cells was determined by Western blotting. […]
We determined whether herbacetin affected the reporter activity of the MAP kinase target transcription factor, activator protein-1 (AP-1), in HCT116 cells or JB6 cells stimulated with TPA. […] AP-1 reporter activity was then measured (FIG. 3f, g) and the activity was attenuated by herbacetin in colon cancer cells and in TPA-activated JB6 cells. […]

[2] = test system: HCT116 cells (shMock, shODC, shODC+ODC); assay: growth of shMock, shODC and shODC+ODC HCT116 cells; format: cell-based
Procedure: FIGS. 4A-4B. The anti-cancer activity exerted by herbacetin is dependent on ODC expression. (a) The effect of herbacetin on HCT116 colon cancer cell growth was assessed in shMock, shODC and shODC cells with rescued ODC expression. Cells were incubated for 72 h and growth was determined by MTS assay. (b) The effect of herbacetin on anchorage independent HCT116 colon cancer cell growth was assessed inshMock, shODC and shODC cells with rescued ODC expression. Cells were incubated in 0.3% agar for 3 weeks and colonies were counted using a microscope and the Image-Pro PLUS (v.6) computer software program. Data are represented as means±S.D. of triplicate values. The asterisk (*) indicates a significant effect (p<0.05) of herbacetin or DFMO compared to untreated controls.
The lentiviral expression vectors, including pLKO.1-shODC and packaging vectors, including pMD2.0G and psPAX, were purchased from Addgene Inc. (Cambridge, Mass.). […] The transfection medium was changed at 4 h after transfection and then cells were cultured for 36 h. The viral particles were harvested by filtration using a […] syringe filter and then combined with 8 μg/ml of polybrane (Millipore, Billerica, Mass.) and infected into 60% confluent HCT-116 cells overnight. The cell culture medium was replaced with fresh complete growth medium for 24 h and then cells were selected with 1.5 μg/ml of puromycine for 36 h. The selected cells were used for experiments.

[3] = test system: SKH-1 hairless mice, DMBA/TPA; assay: TPA-induced skin cancer prevention study, 30 weeks (Example 2); format: in vivo, mouse
Procedure: For the effect of herbacetin on preventing TPA-induced skin cancer, SKH-1 hairless mice were divided into 5 groups of 26-30 mice/group. All mice were initiated with 200 nmol DMBA applied topically on the dorsal surface. Two weeks later, TPA (17 nmol) was applied topically on the dorsal surface twice a week for a total of 30 weeks. Four groups of mice were treated with herbacetin (20, 100, 200, or 500 nmol) 30 min before application of TPA.

O=c1c(O)c(-c2ccc(O)cc2)oc2c(O)c(O)cc(O)c12 [herbacetin, 3,5,7,8,4′-Pentahydroxyflavone]
AP-1 reporter activity [1]: attenuated
inhibitory effect on anchorage-dependent and -independent growth of shODC cells ([2]; shODC vs shMock HCT116 cells): resistance to herbacetin; also recorded: resistant
sensitivity of shODC cells with rescued ODC expression ([2]; shODC+ODC HCT116 cells): restored; also recorded: regained sensitivity
inhibition of colony growth after re-introduction of ODC into sh-ODC knockdown cells ([2]; shODC+ODC HCT116 cells, soft agar): restored sensitivity
tumor growth induced by TPA ([3]; herbacetin 20, 100, 200 or 500 nmol 30 min before TPA, 30 weeks): decreased tumor growth
mice developing papillomas (incidence) ([3]; vs untreated control mice): Fewer mice developed papillomas
number of papillomas ([3]; vs untreated control mice): fewer papillomas (dose-dependent)
tumor size ([3]; vs untreated controls): significantly smaller tumors
